Results as given in EP1574201B1, “Composition comprising benzyloxyethanol as preservative” (KAO CORPORATION, priority 2004, dated 2005).

How the values were obtained:
[1] = system: Staphylococcus aureus IFO 13276, Escherichia coli IFO 3972, and Pseudomonas aeruginosa IFO 13275; assay: Preservative efficacy test (reduction in count of viable bacteria); assay type: cell-based; conditions: BOE and methyl paraben in combination versus each alone
Experimental: Preservative efficacy test was performed at 30°C by use of the bacteria written below and a sample (50 g) having a composition shown in the below-described Table 2, and the preservative efficacy was evaluated on the reduction in count of viable bacteria. The following test microorganisms are challenged: Staphylococcus aureus IFO 13276, Escherichia coli IFO 3972, and Pseudomonas aeruginosa IFO 13275.

[2] = system: Staphylococcus aureus IFO 13276; assay: MIC by agar plate method; assay type: cell-based; conditions: SCD agar medium
Experimental: (§1) The minimum inhibitory concentration (MIC) of benzyloxyethanol against bacteria and fungi was determined by means of the agar plate method. There were employed the following microbial strains: Staphylococcus aureus IFO 13276, Escherichia coli IFO 3972, Pseudomonas aeruginosa IFO 13275, and Alcaligenes faecalis IFO 13111, and the following fungal strains: Penicillium citrinum IFO 6352 , Cladosporium cladosporoides IFO 6348 and Aspergillus niger IFO 6341. The media used in the test […] agar medium (product of Wako Pure Chemical Industries, Ltd.) for the bacteria, and GP agar medium (product of Wako Pure Chemical Industries, Ltd.) for the fungi, to which various concentration of benzyloxyethanol was added.

[3] = system: Escherichia coli IFO 3972; assay: MIC by agar plate method; assay type: cell-based; conditions: SCD agar medium
Experimental: as §1

[4] = system: Cladosporium cladosporoides IFO 6348; assay: MIC by agar plate method; assay type: cell-based; conditions: GP agar medium
Experimental: as §1

[5] = system: Alcaligenes faecalis IFO 13111; assay: MIC by agar plate method; assay type: cell-based; conditions: SCD agar medium
Experimental: as §1

[6] = system: Aspergillus niger IFO 6341; assay: MIC by agar plate method; assay type: cell-based; conditions: GP agar medium
Experimental: as §1

[7] = system: Penicillium citrinum IFO 6352; assay: MIC by agar plate method; assay type: cell-based; conditions: GP agar medium
Experimental: as §1

[8] = system: Pseudomonas aeruginosa IFO 13275; assay: MIC by agar plate method; assay type: cell-based; conditions: SCD agar medium
Experimental: as §1

[9] = guinea pig, in vivo
Experimental: Guinea pig maximization test was performed. Specifically, groups of guinea pigs, each group consisting of 10 guinea pigs, were employed, and each animal was given interedermal injection of.0.3(W/V)% benzyloxyethanol and 30(W/V)% benzyloxyethanol was applied occlusive patch. Subsequently, challenge was performed at a concentration of benzyloxyethanol at which no irritation occurs.

Row | MIC (%) [2] [%] | MIC (%) [3] [%] | MIC (%) [4] [%] | MIC (%) [5] [%] | MIC (%) [6] [%] | MIC (%) [7] [%] | MIC (%) [8] [%] | positive rate [9] [%] | SMILES | available amounts for the required reduction were reduced by [1] [%]
1 | – | – | – | – | – | – | – | – | COC(=O)c1ccc(O)cc1 [methyl paraben, reference compound] | 75
2 | 1.4 | 0.8 | 0.2 | 0.8 | 0.8 | 0.8 | 1.0 | 0 | OCCOCc1ccccc1 [benzyloxyethanol] | 40
